From publication PMC4256409, “Role of Phenylalanine and Valine^10 Residues in the Antimicrobial Activity and Cytotoxicity of Piscidin-1” (PLoS ONE, 2014)
Where no end group is shown, it is not given here.

Experiments:
MDREC CCARM 1229 = format: cell-based, multidrug-resistant E. coli; settings: broth microdilution, 37°C, 16 h, three independent experiments in triplicate, SD 14.0%
MDRST CCARM 8009 = format: cell-based, multidrug-resistant S. typhimurium; settings: broth microdilution, 37°C, 16 h, three independent experiments in triplicate, SD 14.0%
Source text: (§1) Escherichia coli KCTC 1682, E. coli KCTC 2593, E. coli KCTC 2571, Salmonella typhimurium KCTC 1926, Pseudomonas aeruginosa KCTC 1637, P. aeruginosa KCTC 2004, P. aeruginosa KCTC 2513, Bacillus subtilis KCTC 3068, B. subtilis KCTC 1021, B. subtilis KCTC 1022, Staphylococcus epidermidis KCTC 1917, Staphylococcus aureus KCTC 1621, S. aureus KCTC 1916, and S. aureus KCTC 3881 were purchased from the Korean Collection for Type Cultures, Korea Research Institute of Bioscience & Biotechnology (Taejon, Korea). Methicillin-resistant S. aureus (MRSA) (CCARM 3089, CCARM 3090, CCARM 3108, CCARM 3114, and CCARM 3126), multidrug-resistant E. coli (MDREC) (CCARM 1229 and CCARM 1238), multidrug-resistant S. typhimurium (MDRST) (CCARM 8003, CCARM 8007, and CCARM 8009), multidrug-resistant Acinetobacter baumanii (MDRAB) (CCARM 12005, CCARM 12035, CCARM 12036, CCARM 12037), and multidrug-resistant P. aeruginosa (MDRPA) (CCARM 2002, CCARM 2003, CCARM 2095, and CCARM 2163) were obtained from the Culture Collection of Antibiotic-Resistant Microbes (CCARM) at Seoul Women’s University in Korea. The antimicrobial activities of the peptides against selected organisms, including three Gram-positive, three Gram-negative, and five antibiotic-resistant bacteria, were determined using a broth microdilution assay. Briefly, single colonies of bacteria and fungi were inoculated into Luria-Bertani (LB) medium and cultured overnight at 37°C. An aliquot of the culture was transferred to 10 mL of fresh LB and incubated for an additional 3–5 h at 37°C until it reached the mid-logarithmic phase. Two-fold serial dilutions of the peptides in 1% peptone were prepared. The serial dilutions (100 µL) were added to 100 µL of cells (2×10^6 colony-forming units (CFU)/mL) in 96-well microtiter plates and incubated at 37°C for 16 h. […] MIC values were calculated as the average of triplicate measurements from three independent assays.

S. aureus KCTC1621 = format: cell-based, Staphylococcus aureus; settings: S. aureus KCTC1621; broth microdilution, 37°C, 16 h; three independent experiments in triplicate, SD 14.0%
B. subtilis KCTC1022 = format: cell-based, Bacillus subtilis; settings: B. subtilis KCTC1022; broth microdilution, 37°C, 16 h; three independent experiments in triplicate, SD 14.0%
MDRPA CCARM 2095 = format: cell-based, multidrug-resistant P. aeruginosa; settings: broth microdilution, 37°C, 16 h, three independent experiments in triplicate, SD 14.0%
Procedure: (§2) The antimicrobial activities of the peptides against selected organisms, including three Gram-positive, three Gram-negative, and five antibiotic-resistant bacteria, were determined using a broth microdilution assay. Briefly, single colonies of bacteria and fungi were inoculated into Luria-Bertani (LB) medium and cultured overnight at 37°C. An aliquot of the culture was transferred to 10 mL of fresh LB and incubated for an additional 3–5 h at 37°C until it reached the mid-logarithmic phase. Two-fold serial dilutions of the peptides in 1% peptone were prepared. The serial dilutions (100 µL) were added to 100 µL of cells (2×10^6 colony-forming units (CFU)/mL) in 96-well microtiter plates and incubated at 37°C for 16 h. […] MIC values were calculated as the average of triplicate measurements from three independent assays.

MDRAB CCARM 12035 = format: cell-based, multidrug-resistant Acinetobacter baumanii; settings: broth microdilution, 37°C, 16 h, three independent experiments in triplicate, SD 14.0%
Procedure: as §2

MRSA CCARM 3090 = format: cell-based, Methicillin-resistant S. aureus; settings: MRSA CCARM 3090; broth microdilution, 37°C, 16 h; three independent experiments in triplicate, SD 14.0%
E. coli KCTC1682 = format: cell-based, Escherichia coli; settings: E. coli KCTC1682; broth microdilution, 37°C, 16 h; three independent experiments in triplicate, SD 14.0%
Procedure: as §2

S. aureus KCTC1916 = format: cell-based, Staphylococcus aureus; settings: S. aureus KCTC1916; broth microdilution, 37°C, 16 h; three independent experiments in triplicate, SD 14.0%
P. aeruginosa KCTC2513 = format: cell-based, Pseudomonas aeruginosa; settings: P. aeruginosa KCTC2513; broth microdilution, 37°C, 16 h; three independent experiments in triplicate, SD 14.0%
Procedure: as §2

E. coli KCTC2593 = format: cell-based, Escherichia coli; settings: E. coli KCTC2593; broth microdilution, 37°C, 16 h; three independent experiments in triplicate, SD 14.0%
MRSA CCARM 3126 = format: cell-based, Methicillin-resistant S. aureus; settings: MRSA CCARM 3126; broth microdilution, 37°C, 16 h; three independent experiments in triplicate, SD 14.0%
Source text: as §1

## FFHHIFRGIVHVGKTIHRLVTG [Pis-1, reference compound]
MDREC CCARM 1229
  MIC: 4.0 µM
MDRST CCARM 8009
  MIC: 4.0 µM
S. aureus KCTC1621
  MIC: 1.0 µM
B. subtilis KCTC1022
  MIC: 1.0 µM
MDRPA CCARM 2095
  MIC: 2.0 µM
MDRAB CCARM 12035
  MIC: 2.0 µM
MRSA CCARM 3090
  MIC: 8.0 µM
E. coli KCTC1682
  MIC: 1.0 µM
S. aureus KCTC1916
  MIC: 1.0 µM
P. aeruginosa KCTC2513
  MIC: 2.0 µM
E. coli KCTC2593
  MIC: 1.0 µM
MRSA CCARM 3126
  MIC: 4.0 µM
